# Target: T1, His-hMAGL (recombinant polyhistidine tagged human MAGL protein) (Homo sapiens, UniProt Q99685)
# T1 construct: made in house; host or cells: E. coli BL21(DE3)
# T1 sequence (Q99685 1-303): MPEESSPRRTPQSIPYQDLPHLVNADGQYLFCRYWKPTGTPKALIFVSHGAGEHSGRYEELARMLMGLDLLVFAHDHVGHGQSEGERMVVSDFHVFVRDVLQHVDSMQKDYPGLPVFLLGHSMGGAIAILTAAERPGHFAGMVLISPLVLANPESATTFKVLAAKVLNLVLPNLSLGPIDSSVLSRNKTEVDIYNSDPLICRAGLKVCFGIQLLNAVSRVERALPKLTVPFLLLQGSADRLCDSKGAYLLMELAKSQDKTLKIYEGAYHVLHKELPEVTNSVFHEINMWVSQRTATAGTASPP
# Assay: Measurement of MAGL inhibitory activity (arachidonic acid production from 2-arachidonylglycerol, RapidFire-mass spectrometry)
# Type: biochemical
# Conditions: MAGL inhibitory rate at 10 μM test compound; 60 min preincubation with His-hMAGL, 2-arachidonylglycerol substrate, 10 min reaction at room temperature
# Experimental: Furthermore, acetonitrile (50 μL) containing 3 μM arachidonic acid-d8 (Cayman Chemical Company) was added and the mixture was stirred.
# The amount of arachidonic acid in the obtained enzyme reaction mixture was calculated by measuring by RapidFire-mass spectrometry and correcting by the amount of arachidonic acid-d8. High Throughput online solid phase extraction was performed using RapidFire 300™ system (Agilent Technologies, Inc.). Samples were loaded on SPE C4 cartridge (Agilent Technologies, Inc.) and desalted with 0.2 (v/v) % acetic acid (Wako Pure Chemical Industries, Ltd.) in ultrapure water/acetonitrile (70/30, v/v) at a flow rate of 1.5 mL/min, eluted at a flow rate of 0.5 mL/min with 0.2 (v/v) % acetic acid dissolved in acetonitrile/ultrapure water (90/10, v/v), and injected into the mass spectrometry part. The injection needle was washed with ultrapure water (500 millisecond) and acetonitrile (500 millisecond) to minimize carry-over. […] The RapidFire300 system was controlled by RapidFire UI software version 3.6 (Agilent Technologies, Inc.).
# The mass spectrometry of the resultant product was performed using API4000™ triple quadrupole mass spectrometer (AB SCIEX) equipped with an electrospray ion sauce (TurboIon Spray™) in a negative selected reaction monitoring (SRM) mode. The conditions of SRM are shown below. The parameters of the instrument were optimized as follows: capillary temperature 600° C., ion spray voltage −4.5 kV, collision gas 8, curtain gas 15 psi, ion source gas 1 60 psi, ion source gas 2 60 psi. The mass spectrometer was controlled by Analyst™ software version 1.5.1 (AB SCIEX). The peak area integration was analyzed using RapidFire integrator software version 3.6 (Agilent Technologies, Inc.).
# MAGL inhibitory rate (%) was calculated according to the following calculation formula. (1−(arachidonic acid production amount of test compound addition group−arachidonic acid production amount of enzyme−free group)÷(arachidonic acid production amount of test compound-free group−arachidonic acid production amount of enzyme-free group))×100
row,Structure (SMILES),inhibition at 10 µM
1,"O=C1COc2cc(F)c(C(=O)N3CC(OCc4ccc5scnc5c4)C3)cc2N1 [Example 344, 6-((3-(1,3-benzothiazol-5-ylmethoxy)azetidin-1-yl)carbonyl)-7-fluoro-2H-1,4-benzoxazin-3(4H)-one]",99%
2,"O=C1COc2cc(F)c(C(=O)N3CC(COCC4CC4)C3)cc2N1 [Example 225, 6-((3-((cyclopropylmethoxy)methyl)azetidin-1-yl)carbonyl)-7-fluoro-2H-1,4-benzoxazin-3(4H)-one]",85%
3,"CC(Oc1cccc(F)c1F)C1CN(C(=O)c2cc3c(cc2F)OCC(=O)N3)C1 (stereo not shown) [Example 302, 6-((3-(1-(2,3-difluorophenoxy)ethyl)azetidin-1-yl)carbonyl)-7-fluoro-2H-1,4-benzoxazin-3(4H)-one]",102%
4,"O=C1COc2cc(F)c(C(=O)N3CC(OCc4ccccc4F)C3)cc2N1 [Example 330, 7-fluoro-6-((3-((2-fluorobenzyl)oxy)azetidin-1-yl)carbonyl)-2H-1,4-benzoxazin-3(4H)-one]",102%
5,"C=C(C)c1ccc(OCC2CCN(C(=O)c3cc4c(cc3F)OCC(=O)N4)CC2)c(Cl)c1 [Example 82, 6-((4-((2-chloro-4-(prop-1-en-2-yl)phenoxy)methyl)piperidin-1-yl)carbonyl)-7-fluoro-2H-1,4-benzoxazin-3(4H)-one]",101%
6,"O=C1COc2cc(F)c(C(=O)N3CC(OCc4ccc(F)cc4)C3)cc2N1 [Example 332, 7-fluoro-6-((3-((4-fluorobenzyl)oxy)azetidin-1-yl)carbonyl)-2H-1,4-benzoxazin-3(4H)-one]",98%
7,"COC(=O)c1cc(F)ccc1OCC1CCN(C(=O)c2cc3c(cc2F)OCC(=O)N3)CC1 [Example 85, methyl 5-fluoro-2-((1-((7-fluoro-3-oxo-3,4-dihydro-2H-1,4-benzoxazin-6-yl)carbonyl)piperidin-4-yl)methoxy)benzoate]",102%
8,"O=C1COc2cc(F)c(C(=O)N3CC(OCc4ccc(N5CC(F)C5)cc4Cl)C3)cc2N1 [Example 353, 6-((3-((2-chloro-4-(3-fluoroazetidin-1-yl)benzyl)oxy)azetidin-1-yl)carbonyl)-7-fluoro-2H-1,4-benzoxazin-3(4H)-one]",100%
9,"CC(C)(O)c1ccc(OCC2CCN(C(=O)c3cc4c(cc3F)OCC(=O)N4)CC2)c(Cl)c1 [Example 90, 6-((4-((2-chloro-4-(2-hydroxypropan-2-yl)phenoxy)methyl)piperidin-1-yl)carbonyl)-7-fluoro-2H-1,4-benzoxazin-3(4H)-one]",98%
10,"N#Cc1cc(C(F)(F)F)ccc1OCC1CCN(C(=O)c2cc3c(cc2F)OCC(=O)N3)CC1 [Example 68, 2-((1-((7-fluoro-3-oxo-3,4-dihydro-2H-1,4-benzoxazin-6-yl)carbonyl)piperidin-4-yl)methoxy)-5-(trifluoromethyl)benzonitrile]",96%
11,"CC(Oc1cc(F)ccc1F)C1CN(C(=O)c2cc3c(cc2F)OCC(=O)N3)C1 (stereo not shown) [Example 303, 6-((3-(1-(2,5-difluorophenoxy)ethyl)azetidin-1-yl)carbonyl)-7-fluoro-2H-1,4-benzoxazin-3(4H)-one]",103%

# Second part, the compound after the results:
row,inhibition at 10 µM,Structure (SMILES)
1,99%,"O=C1COc2cc(F)c(C(=O)N3CC(COc4ccc(-c5ccc(F)nc5)cc4F)C3)cc2N1 [Example 238, 7-fluoro-6-((3-((2-fluoro-4-(6-fluoropyridin-3-yl)phenoxy)methyl)azetidin-1-yl)carbonyl)-2H-1,4-benzoxazin-3(4H)-one]"
2,101%,"O=C1COc2cc(F)c(C(=O)N3CC(COc4cccc(Cl)c4F)C3)cc2N1 [Example 135, 6-((3-((3-chloro-2-fluorophenoxy)methyl)azetidin-1-yl)carbonyl)-7-fluoro-2H-1,4-benzoxazin-3(4H)-one]"
3,104%,"Cc1cccc(-c2cc(Cl)ccc2OCC2CN(C(=O)c3cc4c(cc3F)OCC(=O)N4)C2)n1 [Example 197, 6-((3-((4-chloro-2-(6-methylpyridin-2-yl)phenoxy)methyl)azetidin-1-yl)carbonyl)-7-fluoro-2H-1,4-benzoxazin-3(4H)-one]"
4,100%,"O=C1COc2cc(F)c(C(=O)N3CC(COc4ccc5scnc5c4)C3)cc2N1 [Example 104, 6-((3-((1,3-benzothiazol-5-yloxy)methyl)azetidin-1-yl)carbonyl)-7-fluoro-2H-1,4-benzoxazin-3(4H)-one]"
5,100%,"O=C1COc2cc(F)c(C(=O)N3CC(COc4ccc(Cl)cc4-c4ccc(F)nc4)C3)cc2N1 [Example 204, 6-((3-((4-chloro-2-(6-fluoropyridin-3-yl)phenoxy)methyl)azetidin-1-yl)carbonyl)-7-fluoro-2H-1,4-benzoxazin-3(4H)-one]"
6,101%,"Cc1ccc(OCC2CN(C(=O)c3cc4c(cc3F)OCC(=O)N4)C2)cc1F [Example 269, 7-fluoro-6-((3-((3-fluoro-4-methylphenoxy)methyl)azetidin-1-yl)carbonyl)-2H-1,4-benzoxazin-3(4H)-one]"
7,99%,"Cc1ccc(OCC2CN(C(=O)c3cc4c(cc3F)OCC(=O)N4)C2)cc1Cl [Example 183, 6-((3-((3-chloro-4-methylphenoxy)methyl)azetidin-1-yl)carbonyl)-7-fluoro-2H-1,4-benzoxazin-3(4H)-one]"
8,98%,"Cc1ncccc1-c1ccc(OCC2CN(C(=O)c3cc4c(cc3F)OCC(=O)N4)C2)c(F)c1 [Example 262, 7-fluoro-6-((3-((2-fluoro-4-(2-methylpyridin-3-yl)phenoxy)methyl)azetidin-1-yl)carbonyl)-2H-1,4-benzoxazin-3(4H)-one]"
9,101%,"O=C1COc2cc(F)c(C(=O)N3CC(COc4ccc(-c5ccncc5Cl)cc4F)C3)cc2N1 [Example 243, 6-((3-((4-(3-chloropyridin-4-yl)-2-fluorophenoxy)methyl)azetidin-1-yl)carbonyl)-7-fluoro-2H-1,4-benzoxazin-3(4H)-one]"
10,97%,Cc1ccnc(-c2ccc(OCC3CN(C(=O)c4cc5c(cc4F)OCC(=O)N5)C3)c(F)c2)c1 [Example 276]
11,100%,"O=C1COc2cc(F)c(C(=O)N3CC(COc4ccc(N5CC(F)C5)cc4F)C3)cc2N1 [Example 292, 7-fluoro-6-((3-((2-fluoro-4-(3-fluoroazetidin-1-yl)phenoxy)methyl)azetidin-1-yl)carbonyl)-2H-1,4-benzoxazin-3(4H)-one]"

# Same assay, conditions: MAGL inhibitory rate at 10 μM test compound; 60 min preincubation with His-hMAGL, 2-arachidonylglycerol substrate, 10 min reaction at room temperature; 10 µM
row,% inhibition (10 μM),Structure (SMILES)
1,102%,"CC(Oc1ccc(F)cc1F)C1CN(C(=O)c2cc3c(cc2F)OCC(=O)N3)C1 (stereo not shown) [Example 300, 6-((3-(1-(2,4-difluorophenoxy)ethyl)azetidin-1-yl)carbonyl)-7-fluoro-2H-1,4-benzoxazin-3(4H)-one]"
2,99%,"CC(Oc1cccc(F)c1F)C1CN(C(=O)c2cc3c(cc2F)OCC(=O)N3)C1 (stereo not shown) [Example 310, 6-((3-(1-(2,3-difluorophenoxy)ethyl)azetidin-1-yl)carbonyl)-7-fluoro-2H-1,4-benzoxazin-3(4H)-one]"
3,101%,"CC(Oc1ccc(F)cc1Cl)C1CCN(C(=O)c2cc3c(cc2F)OCC(=O)N3)CC1 (stereo not shown) [Example 295, 6-((4-(1-(2-chloro-4-fluorophenoxy)ethyl)piperidin-1-yl)carbonyl)-7-fluoro-2H-1,4-benzoxazin-3(4H)-one]"

# Source: patent US10106556B2, “Heterocyclic compound” (TAKEDA PHARMACEUTICAL COMPANY LIMITED, priority 2015, dated 2018)
